Data reported in patent publication US5679695A, “Aryl and heteroaryl compounds having anti-retrovirus activity” (The University of Connecticut, priority 1995, dated 1997).

Experiments:
Format in all cases: cell-based
HIV = experiment: Anti-HIV activity in MT-2; settings: Human immunodeficiency virus 1; MT-2, summary table; read-out: MT-2 EC50
Excerpt: Obviously, there is a structure activity relationship with respect to the efficacy of the compounds of the present invention. Factors that affect the relationship may include steric effects, electronic effects, (electron withdrawing or electron donating ability), resonance effects, hydrophobic,hydrophilic, hydrogen bonding parameters, etc. […] Based on the data, it has been determined that there is a direct correlation between the log (EC50)^-1 and the electronic effect of a substituent (a) or more precisely the sum of the sigma (σ) values. (The greater the electron withdrawing ability of a substituent, the higher the value of σ, while a better electron donating group has a lower value of σ.) There appears to be a direct correlation between log (EC50)^-1 and the Σσ; as the Σσ increases, so does the log (EC50)^-1. The addition of substituents to the diphenyl sulfone will affect the factors discussed hereinabove, thus both the log (EC50)^-1 and the Σσ will be affected. Thus for the diphenyl sulfone derivative [drawing 25] the relation is […]

[1] = test system: Rauscher Murine Leukemia Virus (MLV); experiment: Rauscher MuLV UV-XC plaque assay
Experimental: One such method is used to determine the effectiveness of representative compounds and compositions of the present invention in the Rauscher and LP-BMS Murine Leukemia Virus (MLV) In Vitro Assays.
SC-1 cells were grown as monolayers in 6-well tissue culture plates (Falcon). The a test compound was added to the cultures at the time of virus inoculation (approximately 24 hours after the cells were seeded) and was present for 3 days, at which time the cultures were irradiated with UV light. All compounds were solubilized in DMSO prior to dilution in grown medium. The highest concentration of DMSO present in the cultures was 0.05%. The test cultures (triplicate cultures per drug concentrate) each contained 2 ml of test compound diluted in growth medium (Eagle's minimum) essential medium (EMEM) supplemented with 5% heat-inactivated fetal bovine serum (FBS) and 0.5 ml of the virus suspension diluted to produce a countable number of plaques per well. The six virus control cultures contained 2 ml of medium and 0.5 ml of the virus suspension. NSC606170(ddC) was included as a positive control. drug. Drug cytotoxicity control cultures (containing test compound) but no virus and cell control culture (containing no test compound) or virus were included in the assay. On day 3 post-virus inoculation, the cultures were irradiated and XC cells were added. Three days after V-irradiation, the cultures were fixed with formalin and stained with 0.1% crystal violet. The plaques were counted with the aid of a dissection microscope.
(§1) Using the procedure, the following data is generated from representative compounds of the presnet invention.

[2] = Dye conversion (MTT formazan) assay of drug-induced cytotoxicity; settings: mouse, sc-1 cells; for cytotoxicity at 72 h, 1000 µM / viability at 72 h, 1000 µM: 1 × 10^-3 M; for cytotoxicity at 72 h, 1000 µM / cytotoxicity at 72 h, 100 µM / cytotoxicity at 72 h, 10 µM / cytotoxicity at 72 h, 1 µM / cytotoxicity at 72 h, 0.1 µM / cytotoxicity at 72 h, 0.01 µM: read-out: % Reduction; for viability at 72 h, 1000 µM / viability at 72 h, 100 µM / viability at 72 h, 10 µM / viability at 72 h, 1 µM / viability at 72 h, 0.1 µM / viability at 72 h, 0.01 µM: read-out: % of Control; for cytotoxicity at 72 h, 100 µM / viability at 72 h, 100 µM: 1 × 10^-4 M; for cytotoxicity at 72 h, 10 µM / viability at 72 h, 10 µM: 1 × 10^-5 M; for cytotoxicity at 72 h, 1 µM / viability at 72 h, 1 µM: 1 × 10^-6 M; for cytotoxicity at 72 h, 0.1 µM / viability at 72 h, 0.1 µM: 1 × 10^-7 M; for cytotoxicity at 72 h, 0.01 µM / viability at 72 h, 0.01 µM: 1 × 10^-8 M
Experimental: (§2) A dye conversion assay to determine drug-induced cytotoxicity was performed. This assay is based on the conversion of MTT to a formazan product in living cells. This conversion results in a color change which can be detected spectrophotometrically. A 96-well tissue culture plate was seeded with […] per well at the time that the 6-well plates were seeded for the UV-XC plaque assay. The following day, the medium was decanted and the cell control cultures received 100 ul of medium. The drug controls received 80 ul of drug and 20 ul of medium such that the final concentration of drug was equivalent to that used in the 6-well plates. On day 3 after addition of the drug, 50 ul of a 2 mg/ml solution of MTT in EMEM with 5% heat-inactivated FBS were added each well. The culture was incubated for 7 hours and 100 ul of a 10% SDS: 0.01 N HCL solution was added to each well. The culture was incubated overnight and the following morning the optical density (O.D.) was read at 570 nm wavelength on a Perkin-Elmer spectrophotometer. The percent reduction in the drug-treated cell. O.D. reading compared to the control cell O.D. reading was calculated.
as §1

SC-1 cells = experiment: as above; settings: 570 nm
Experimental: as §2, §1

[3] = Murine leukemia virus, SC-1, 1 × 10^-4 M, read-out: % Plaque Reduction
[4] = Murine leukemia virus, SC-1, 1 × 10^-5 M, read-out: % Plaque Reduction
[5] = Murine leukemia virus, SC-1, 1 × 10^-6 M, read-out: % Plaque Reduction
[6] = Murine leukemia virus, SC-1, 1 × 10^-7 M, read-out: % Plaque Reduction
[7] = Murine leukemia virus, SC-1, 1 × 10^-8 M, read-out: % Plaque Reduction

O=[N+]([O-])c1ccccc1S(=O)(=O)c1ccccc1 [Compound 1, 1-Nitro-2-(phenylsulfonyl)benzene]
EC50 (HIV): 1160 nM
Mean plaque count ([1]; 1 × 10^-4 M): 46
Plaque count, replicate #1 ([1]; 1 × 10^-4 M): 43
Plaque count, replicate #2 ([1]; 1 × 10^-4 M): 48
Plaque count, replicate #3 ([1]; 1 × 10^-4 M): 46
Mean plaque count ([1]; 1 × 10^-5 M): 53
Plaque count, replicate #1 ([1]; 1 × 10^-5 M): 58
Plaque count, replicate #2 ([1]; 1 × 10^-5 M): 42
Plaque count, replicate #3 ([1]; 1 × 10^-5 M): 60
Mean plaque count ([1]; 1 × 10^-6 M): 56
Plaque count, replicate #1 ([1]; 1 × 10^-6 M): 71
Plaque count, replicate #2 ([1]; 1 × 10^-6 M): 43
Plaque count, replicate #3 ([1]; 1 × 10^-6 M): 53
Mean plaque count ([1]; 1 × 10^-7 M): 64
Plaque count, replicate #1 ([1]; 1 × 10^-7 M): 53
Plaque count, replicate #2 ([1]; 1 × 10^-7 M): 69
Plaque count, replicate #3 ([1]; 1 × 10^-7 M): 71
Mean plaque count ([1]; 1 × 10^-8 M): 65
Plaque count, replicate #1 ([1]; 1 × 10^-8 M): 64
Plaque count, replicate #2 ([1]; 1 × 10^-8 M): 55
Plaque count, replicate #3 ([1]; 1 × 10^-8 M): 76
inhibition at 100 µM [1, 3]: 26%
inhibition at 10 µM [1, 4]: 14%
inhibition at 1 µM [1, 5]: 10%
inhibition at 0.1 µM [1, 6]: 0%
inhibition at 0.01 µM [1, 7]: 0%
cytotoxicity at 72 h, 1000 µM [2]: 45%
viability at 72 h, 1000 µM [2]: 55%
cytotoxicity at 72 h, 100 µM [2]: 15%
viability at 72 h, 100 µM [2]: 85%
cytotoxicity at 72 h, 10 µM [2]: 3%
viability at 72 h, 10 µM [2]: 97%
cytotoxicity at 72 h, 1 µM [2]: 2%
viability at 72 h, 1 µM [2]: 98%
cytotoxicity at 72 h, 0.1 µM [2]: 0%
viability at 72 h, 0.1 µM [2]: 101%
cytotoxicity at 72 h, 0.01 µM [2]: 1%
viability at 72 h, 0.01 µM [2]: 99%
O.D. Reading (SC-1 cells; 1 × 10^-3 M): 0.851
O.D. Reading (SC-1 cells; 1 × 10^-4 M): 1.320
O.D. Reading (SC-1 cells; 1 × 10^-5 M): 1.504
O.D. Reading (SC-1 cells; 1 × 10^-6 M): 1.522
O.D. Reading (SC-1 cells; 1 × 10^-7 M): 1.566
O.D. Reading (SC-1 cells; 1 × 10^-8 M): 1.530

Cc1ccc(S(=O)(=O)c2ccccc2[N+](=O)[O-])cc1 [Compound 2, 1-(4-Methylphenylsulfonyl)-2-nitrobenzene]
EC50 (HIV): 3260 nM
Mean plaque count ([1]; 1 × 10^-3 M): 19
Plaque count, replicate #1 ([1]; 1 × 10^-3 M): 20
Plaque count, replicate #2 ([1]; 1 × 10^-3 M): 20
Plaque count, replicate #3 ([1]; 1 × 10^-3 M): 17
Mean plaque count ([1]; 1 × 10^-4 M): 8
Plaque count, replicate #1 ([1]; 1 × 10^-4 M): 9
Plaque count, replicate #2 ([1]; 1 × 10^-4 M): 8
Plaque count, replicate #3 ([1]; 1 × 10^-4 M): 8
Mean plaque count ([1]; 1 × 10^-5 M): 64
Plaque count, replicate #1 ([1]; 1 × 10^-5 M): 60
Plaque count, replicate #2 ([1]; 1 × 10^-5 M): 69
Plaque count, replicate #3 ([1]; 1 × 10^-5 M): 64
Mean plaque count ([1]; 1 × 10^-6 M): 61
Plaque count, replicate #1 ([1]; 1 × 10^-6 M): 72
Plaque count, replicate #2 ([1]; 1 × 10^-6 M): 53
Plaque count, replicate #3 ([1]; 1 × 10^-6 M): 5
Mean plaque count ([1]; 1 × 10^-7 M): 56
Plaque count, replicate #1 ([1]; 1 × 10^-7 M): 52
Plaque count, replicate #2 ([1]; 1 × 10^-7 M): 57
Plaque count, replicate #3 ([1]; 1 × 10^-7 M): 60
Mean plaque count ([1]; 1 × 10^-8 M): 60
Plaque count, replicate #1 ([1]; 1 × 10^-8 M): 62
Plaque count, replicate #2 ([1]; 1 × 10^-8 M): 56
Plaque count, replicate #3 ([1]; 1 × 10^-8 M): 63
inhibition at 1000 µM ([1]; Murine leukemia virus, SC-1, 1 × 10^-3 M, read-out: % Plaque Reduction): 69%
inhibition at 100 µM [1, 3]: 87%
inhibition at 10 µM [1, 4]: 0%
inhibition at 1 µM [1, 5]: 2%
inhibition at 0.1 µM [1, 6]: 9%
inhibition at 0.01 µM [1, 7]: 3%
cytotoxicity at 72 h, 1000 µM [2]: 31%
viability at 72 h, 1000 µM [2]: 69%
cytotoxicity at 72 h, 100 µM [2]: 13%
viability at 72 h, 100 µM [2]: 87%
cytotoxicity at 72 h, 10 µM [2]: 8%
viability at 72 h, 10 µM [2]: 92%
cytotoxicity at 72 h, 1 µM [2]: 8%
viability at 72 h, 1 µM [2]: 92%
cytotoxicity at 72 h, 0.1 µM [2]: 8%
viability at 72 h, 0.1 µM [2]: 92%
cytotoxicity at 72 h, 0.01 µM [2]: 9%
viability at 72 h, 0.01 µM [2]: 91%
O.D. Reading (SC-1 cells; 1 × 10^-3 M): 1.066
O.D. Reading (SC-1 cells; 1 × 10^-4 M): 1.345
O.D. Reading (SC-1 cells; 1 × 10^-5 M): 1.425
O.D. Reading (SC-1 cells; 1 × 10^-6 M): 1.418
O.D. Reading (SC-1 cells; 1 × 10^-7 M): 1.429
O.D. Reading (SC-1 cells; 1 × 10^-8 M): 1.411
